Experimental data reported in PubChem BioAssay (NCI).
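Compound exposure: 48 hours, 5 concentrations, 96-well plates. TGI marks complete inhibition of growth.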

Tests used:
Experiment in all cases: NCI tumour cell line growth inhibition, 48 h
[1] = system: HT29 colon
[2] = system: LOX IMVI melanoma
[3] = system: MOLT-4 leukemia
[4] = system: IGROV1 ovarian
[5] = system: DU-145 prostate
[6] = system: NCI-H522 lung
[7] = system: A549 NSCLC
[8] = system: NCI-H460 lung
[9] = system: HCT-15 colon
[10] = system: NCI-H23 lung
[11] = system: SK-MEL-5 melanoma
[12] = system: HOP-92 NSCLC
[13] = system: TK-10 renal
[14] = system: NCI-H226 lung
[15] = system: HS 578T breast
[16] = system: K-562 leukemia
[17] = system: RPMI-8226 leukemia
[18] = system: SK-MEL-28 melanoma
[19] = system: SF-268 CNS
[20] = system: OVCAR-4 ovarian
[21] = system: OVCAR-8 ovarian
[22] = system: SNB-19 CNS
[23] = system: UACC-62 melanoma
[24] = system: OVCAR-3 ovarian
[25] = system: SK-MEL-2 melanoma
[26] = system: CCRF-CEM leukemia
[27] = system: ACHN renal
[28] = system: SN12C renal
[29] = system: SW-620 colon
[30] = system: KM12 colon
[31] = system: M14 melanoma
[32] = system: BT-549 breast
[33] = system: MDA-MB-231 breast
[34] = system: UACC-257 melanoma
[35] = system: U251 CNS
[36] = system: COLO 205 colon
[37] = system: T-47D breast
[38] = system: MCF7 breast
[39] = system: OVCAR-5 ovarian
[40] = system: HCC-2998 colon
[41] = system: MALME-3M melanoma
[42] = system: MDA-MB-435
[43] = system: 786-0 renal
[44] = system: MDA-N
[45] = system: SF-295 CNS
[46] = system: RXF 393 renal
[47] = system: HL-60(TB) leukemia
[48] = system: UO-31 renal
[49] = system: SNB-75 CNS
[50] = system: SF-539 CNS
[51] = system: EKVX NSCLC
[52] = system: HCT-116 colon
[53] = system: CAKI-1 renal
[54] = system: SK-OV-3 ovarian
[55] = system: A498 renal
[56] = system: HOP-62 NSCLC
[57] = system: PC-3 prostate
[58] = system: NCI/ADR-RES ovarian
[59] = system: SR leukemia

Measured: TGI

CN1CCN(C(=S)N(C)C(=O)c2ccc(Cl)cc2)CC1
not listed: [50] | [51] | [52] | [53] | [54] | [55] | [56] | [57] | [58] | [59]
> 100 µM: all other assays above

Cc1nc2cc(C(F)(F)F)ccc2[nH]c1=O
not listed: [4] | [6] | [59]
> 100 µM: all other assays above

CCN(CCCN(CC)C(=O)N[C@@H](Cc1ccccc1)C(=O)NC)C(=O)N[C@@H](Cc1ccccc1)C(=O)NC
not listed: [3] | [4] | [16] | [17] | [26] | [28] | [38] | [47] | [49]
> 100 µM: all other assays above

O=C(O)/C=C/C(=O)Nc1ncn[nH]1
not listed: [16] | [26] | [41] | [47] | [59]
> 100 µM: all other assays above
